The results in this text go back to patent US12331033B2, “Inhibitors of SARM1” (Disarm Therapeutics, Inc., priority 2020, dated 2025).

What is called IC50 is the concentration that gives 50% inhibition.

The target of the experiment is SARM1 (ARM-SAM-TIR) (Homo sapiens (Human), UniProt Q6SZW1). The experiment is described as follows: ARM-SAM-TIR SARM1 IC50 assay (NADase activity, NAD+ cleavage, RapidFire MS). As to conditions: ARM-SAM-TIR lysate 5 μg/mL, 2 h pre-incubation, 5 μM NAD+, 2 hr room temperature. It is filed as biochemical. As to the method: This Example describes an assay of ARM-SAM-TIR NADase activity and use of this assay to measure the efficacy of compounds of Formula I or Formula I′ to block SARM1 mediated NAD+ cleavage. This assay was optimized in such a way as to characterize the efficacy of the compounds in Formula I or Formula I′ to inhibit SARM1 activity and to calculate an IC50 value for each compound. This assay makes use of full length SARM1, which encompasses the ARM, SAM and TIR domains.
Chain of SARM1 (ARM-SAM-TIR) (Q6SZW1 other isoform, or with tags, fused parts or gaps): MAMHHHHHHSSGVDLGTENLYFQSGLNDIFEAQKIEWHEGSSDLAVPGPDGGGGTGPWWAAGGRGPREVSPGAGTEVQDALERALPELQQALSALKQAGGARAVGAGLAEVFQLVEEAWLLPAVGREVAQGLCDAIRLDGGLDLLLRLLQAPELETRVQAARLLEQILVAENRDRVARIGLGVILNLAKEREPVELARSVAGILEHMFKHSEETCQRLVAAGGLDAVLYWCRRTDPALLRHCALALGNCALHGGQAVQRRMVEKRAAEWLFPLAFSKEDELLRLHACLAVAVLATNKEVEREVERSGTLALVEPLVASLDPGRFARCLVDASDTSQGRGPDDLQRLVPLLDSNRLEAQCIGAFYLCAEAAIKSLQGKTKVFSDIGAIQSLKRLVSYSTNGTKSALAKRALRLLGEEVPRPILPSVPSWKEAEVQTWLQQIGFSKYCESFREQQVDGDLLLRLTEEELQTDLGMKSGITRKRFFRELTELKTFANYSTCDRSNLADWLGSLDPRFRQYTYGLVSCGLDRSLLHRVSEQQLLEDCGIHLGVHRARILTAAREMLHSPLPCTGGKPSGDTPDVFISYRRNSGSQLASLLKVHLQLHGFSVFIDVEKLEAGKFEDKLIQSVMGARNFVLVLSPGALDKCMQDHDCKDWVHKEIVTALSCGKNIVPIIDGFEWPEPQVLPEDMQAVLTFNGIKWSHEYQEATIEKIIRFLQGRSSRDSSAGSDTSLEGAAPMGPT
NRK1-HEK293T cells were seeded onto 150 cm^2 plates at 20×10^6 cells per plate. The next day, the cells were transfected with 15 μg ARM-SAM-TIR expression plasmid, SEQ ID NO: 1.
The cultures were supplemented with 1 mM NR at time of transfection to minimize toxicity from ARM-SAM-TIR overexpression. Forty-eight hours after transfection, cells were harvested, pelleted by centrifugation at 1,000 rpm (Sorvall ST 16R centrifuge, Thermo Fisher), and washed once with cold PBS (0.01 M phosphate buffered saline NaCl 0.138 M; KCl 0.0027 M; pH 7.4). The cells were resuspended in PBS with protease inhibitors (cOmplete™ protease inhibitor cocktail, Roche product #11873580001) and cell lysates were prepared by sonication (Branson Sonifer 450, output=3, 20 episodes of stroke). The lysates were centrifuged (12,000×g for 10 min at 4° C.) to remove cell debris and the supernatants (containing ARM-SAM-TIR protein) were stored at −80° C. for later use in the in vitro ARM-SAM-TIR NADase assay (see below). Protein concentration was determined by the Bicinchoninic (BCA) method and used to normalize lysate concentrations.
The enzymatic assay was performed in a 384-well polypropylene plate in Dulbecco's PBS buffer in a final assay volume of 20 μL. ARM-SAM-TIR lysate with a final concentration of 5 μg/mL was pre-incubated with the respective compound at 1% DMSO final assay concentration over 2 h at room temperature. The reaction was initiated by addition of 5 μM final assay concentration of NAD+ as substrate. After a 2 hr room temperature incubation, the reaction was terminated with 40 μL of stop solution of 7.5% trichloroactetic acid in acetonitrile. The NAD+ and ADPR concentrations were analyzed by a RapidFire High Throughput Mass Spectrometry System (Agilent Technologies, Santa Clara, Calif.) using an API4000 triple quadrupole mass spectrometer (AB Sciex Framingham, Mass.).
As to `Cc1cccc(CCC(=O)Nc2nnc(-c3ccncc3)[nH]2)c1` [Example 140], the half-inhibitory concentration (IC50) was below 5 µM. In the case of `Cc1ccccc1CCC(=O)Nc1nnc(-c2ccncc2)[nH]1` [Example 141] it was below 5 µM; in that of `O=C(CCCc1ccccc1)Nc1nnc(-c2ccncc2)[nH]1` [Example 142], 5 to 15 µM; in that of `O=C(Cc1ccccc1)Nc1nnc(-c2ccncc2)[nH]1` [Example 143], 15 to 30 µM.

On to `CC(=O)Nc1nnc(-c2ccncc2)[nH]1` [Example 144], for which the 50% inhibitory concentration (IC50) was above 30 µM. In the case of `O=C(COc1ccccc1)Nc1nnc(-c2ccncc2)[nH]1` [Example 145] it was above 30 µM; in that of `O=C(CCc1ccccc1)Nc1nnc(-c2ccncc2)[nH]1` [Example 146], below 5 µM.

`Nc1nnc(-c2ccncc2)[nH]1` [Example 147] gave a half-inhibitory concentration (IC50) above 30 µM. In the case of `Cc1ccc(OCC(=O)Nc2nnc(-c3ccncc3)[nH]2)c(C)c1` [Example 149] it was 15 to 30 µM. In the case of `[2H]C([2H])([2H])c1c(-c2ccncc2)n[nH]c1NC(=O)C([2H])([2H])C([2H])([2H])c1ccc(Cl)nc1` [Example 150] it was below 5 µM; in that of `Cc1c(-c2ccncc2)n[nH]c1NC(=O)CCc1cnc(Cl)c(F)c1` [Example 151], below 5 µM. Molecule `Cc1c(-c2ccnnc2)n[nH]c1NC(=O)CCc1ccc(Cl)s1` [Example 152] displayed an IC50 below 5 µM. In the case of `Cc1c(-c2ccncc2)n[nH]c1NC(=O)CCc1ccc(F)nc1` [Example 153] it was below 5 µM; in that of `Cc1c(-c2ccnnc2)n[nH]c1NC(=O)CCc1ccc(Cl)c(F)c1` [Example 154], below 5 µM; in that of `Cc1c(-c2ccnnc2)n[nH]c1NC(=O)CCc1ccc(Cl)cc1` [Example 155], below 5 µM. In the case of `O=C(CCc1ccc(Cl)cc1)Nc1nnc(-c2ccncn2)[nH]1` [Example 156] it was below 5 µM; in that of `O=C(CCc1ccc(Cl)cc1)Nc1nnc(-c2ccns2)[nH]1` [Example 157], below 5 µM. In the case of `O=C(CCc1ccc(C(F)(F)F)cc1)Nc1[nH]nc(-c2ccnnc2)c1Br` [Example 158] it was below 5 µM; in that of `O=C(CCc1ccc(Cl)s1)Nc1nc(-c2ccncc2)c[nH]1` [Example 159], below 5 µM; in that of `O=C(NCc1cccc(Cl)c1)Nc1nnc(-c2ccncc2)[nH]1` [Example 160], below 5 µM.

As to `NS(=O)(=O)c1c(-c2ccncc2)n[nH]c1NC(=O)CCc1ccc(Cl)cc1` [Example 161], the IC50 fell in the range of 5 to 15 µM.

For the molecule `[2H]C([2H])(C(=O)Nc1cc(-c2ccncc2)n[nH]1)C([2H])([2H])c1ccc(Cl)cc1` [Example 162], the half-inhibitory concentration (IC50) was below 5 µM.

`Cn1cncc1-c1nnc(NC(=O)CCc2ccc(Cl)cc2)[nH]1` [Example 163] yielded an IC50 below 5 µM. Molecule `CN(Cc1ccc(Cl)cc1)C(=O)Nc1nnc(-c2ccncc2)[nH]1` [Example 164] had an IC50 below 5 µM.

The molecule `O=C(NCc1ccc(Cl)nc1)Nc1nnc(-c2ccncc2)[nH]1` [Example 165] came in with a half-maximal inhibitory concentration (IC50) below 5 µM. In the case of `O=C(Nc1nnc(-c2ccncc2)[nH]1)N1CCc2nc(Cl)ccc2C1` [Example 166] it was below 5 µM; in that of `O=C(CCc1ccc(Cl)cc1)Nc1[nH]nc(-c2ccncc2)c1Br` [Example 167], below 5 µM.

For the molecule `O=C(CCc1ccc(Cl)cc1)Nc1[nH]nc(-c2ccncc2)c1F` [Example 168], the half-inhibitory concentration (IC50) is below 5 µM. Molecule `[2H]C([2H])(C(=O)Nc1nnc(-c2ccncc2)[nH]1)C([2H])([2H])c1ccc(Cl)cc1` [Example 169] showed a half-maximal inhibitory concentration (IC50) below 5 µM. In the case of `[2H]C([2H])(C(=O)Nc1[nH]nc(-c2ccncc2)c1C)C([2H])([2H])c1ccc(Cl)cc1` [Example 170] it was below 5 µM; in that of `[2H]C([2H])(C(=O)Nc1[nH]nc(-c2ccncc2)c1C)C([2H])([2H])c1ccc(Cl)nc1` [Example 171], below 5 µM; in that of `O=C(CC1CCOc2cc(Cl)ccc21)Nc1cc(-c2ccncc2)n[nH]1` (centres unmarked) [Example 172], below 5 µM.

For the molecule `Cc1c(-c2ccncc2)n[nH]c1NC(=O)CC1CCOc2cc(Cl)ccc21` (centres unmarked) [Example 173], the concentration for half-maximal inhibition (IC50) was below 5 µM. In the case of `O=C(NCc1ccc(Cl)nc1)Nc1cc(-c2ccncc2)n[nH]1` [Example 174] it was below 5 µM; in that of `NC(Cc1ccc(Cl)c(F)c1)C(=O)Nc1cc(-c2ccncc2)n[nH]1` (centres unmarked) [Example 175], below 5 µM. Molecule `CN[C@@H](Cc1ccc(Cl)cc1)C(=O)Nc1cc(-c2ccncc2)n[nH]1` [Example 176] returned an IC50 below 5 µM. Molecule `[2H]C([2H])(C(=O)Nc1[nH]nc(-c2ccnnc2)c1C)C([2H])([2H])c1ccc(Cl)cc1` [Example 177] gave a 50% inhibitory concentration (IC50) below 5 µM. In the case of `[2H]C([2H])(C(=O)Nc1[nH]nc(-c2ccnnc2)c1C)C([2H])([2H])c1ccc(Cl)nc1` [Example 178] it was below 5 µM; in that of `O=C(CC1CCOc2nc(Cl)ccc21)Nc1nnc(-c2ccncc2)[nH]1` (centres unmarked) [Example 179], below 5 µM; in that of `O=C(CC1CCOc2cc(Cl)ncc21)Nc1nnc(-c2ccncc2)[nH]1` (centres unmarked) [Example 180], below 5 µM. `O=C(Nc1cc(-c2ccncc2)n[nH]1)[C@H]1C[C@H](c2ccc(Cl)cc2)C1` [Example 181] had an IC50 below 5 µM. With `Cc1c(-c2ccncc2)n[nH]c1NC(=O)[C@H]1C[C@H](c2ccc(Cl)cc2)C1` [Example 182], the half-maximal inhibitory concentration (IC50) was below 5 µM. In the case of `O=C(Nc1nnc(-c2ccncc2)[nH]1)NC1CCOc2cc(Cl)ccc21` (centres unmarked) [Example 183] it was 5 to 15 µM.

`O=C(Nc1nnc(-c2ccncc2)[nH]1)NC1CCOc2nc(Cl)ccc21` (centres unmarked) [Example 184] gave a 50% inhibitory concentration (IC50) of 5 to 15 µM.

The molecule `O=C(Nc1nnc(-c2ccncc2)[nH]1)N1CCc2cc(Cl)ccc2C1` [Example 185] yielded an IC50 below 5 µM. `N#Cc1c(-c2ccncc2)n[nH]c1NC(=O)CCc1ccc(Cl)cc1` [Example 186] showed an IC50 below 5 µM. In the case of `CCOC(=O)c1c(-c2ccncc2)n[nH]c1NC(=O)CCc1ccc(Cl)cc1` [Example 187] it was below 5 µM; in that of `Cc1c(-c2ccncc2)n[nH]c1NC(=O)CCc1ccc(Cl)c(F)c1` [Example 188], below 5 µM; in that of `[2H]C([2H])(C(=O)Nc1cc(-c2ccnnc2)n[nH]1)C([2H])([2H])c1ccc(Cl)cc1` [Example 189], below 5 µM. As to `[2H]C([2H])(C(=O)Nc1cc(-c2ccnnc2)n[nH]1)C([2H])([2H])c1ccc(Cl)nc1` [Example 190], the half-inhibitory concentration (IC50) was below 5 µM. In the case of `[2H]C([2H])(C(=O)Nc1nnc(-c2ccnnc2)[nH]1)C([2H])([2H])c1ccc(Cl)nc1` [Example 191] it was below 5 µM; in that of `O=C(CC1CCOc2cc(Cl)ccc21)Nc1cc(-c2ccnnc2)n[nH]1` (centres unmarked) [Example 192], below 5 µM; in that of `O=C(CC1CCOc2cc(Cl)ccc21)Nc1nnc(-c2ccnnc2)[nH]1` (centres unmarked) [Example 193], below 5 µM. In the case of `O=C(CCc1ccc(Cl)cc1)Nc1[nH]nc(-c2ccncc2)c1CO` [Example 194] it was below 5 µM; in that of `N#Cc1c(-c2ccncc2)n[nH]c1NC(=O)CCc1ccc(Cl)nc1` [Example 195], below 5 µM; in that of `O=C(Nc1nnc(-c2ccnnc2)[nH]1)[C@H]1C[C@H](c2ccc(Cl)cc2)C1` [Example 196], below 5 µM. In the case of `O=C(Nc1cc(-c2ccnnc2)n[nH]1)[C@H]1C[C@H](c2ccc(Cl)cc2)C1` [Example 197] it was below 5 µM. As for `Cc1cnccc1-c1cc(NC(=O)CCc2ccc(Cl)cc2)[nH]n1` [Example 198], the IC50 is below 5 µM. `Cc1c(-c2ccncc2)n[nH]c1NC(=O)CC1Cc2ccccc2C1` [Example 199] returned an IC50 of 5 to 15 µM. Molecule `Cc1c(-c2ccncc2)n[nH]c1NC(=O)CCc1ccc(C(F)(F)F)cc1` [Example 200] showed an IC50 below 5 µM. In turn, `Cc1c(-c2ccncc2)n[nH]c1NC(=O)[C@@H](N)Cc1ccc(Cl)cc1` [Example 201] returned an IC50 below 5 µM. In the case of `Cc1c(-c2ccncc2)n[nH]c1NC(=O)CCc1ccc(Cl)s1` [Example 202] it was below 5 µM; in that of `O=C(CCc1ccc(Cl)cc1)Nc1[nH]nc(-c2ccncc2)c1C1CCC1` [Example 203], below 5 µM; in that of `O=C(CCc1ccc(Cl)nc1)Nc1[nH]nc(-c2ccncc2)c1C1CCC1` [Example 204], 5 to 15 µM. With `Cc1c(-c2ccnnc2)n[nH]c1NC(=O)CCc1ccc(Cl)nc1` [Example 205], the 50% inhibitory concentration (IC50) was below 5 µM.
